The values below come from US12643881B2, “Bicyclic amine CDK12 inhibitors” (Incyte Corporation, priority 2021, dated 2026).

In general, IC50 refers to the point on the concentration scale where inhibition reaches its midpoint.

T1 sequence (Q9NYV4 whole entry): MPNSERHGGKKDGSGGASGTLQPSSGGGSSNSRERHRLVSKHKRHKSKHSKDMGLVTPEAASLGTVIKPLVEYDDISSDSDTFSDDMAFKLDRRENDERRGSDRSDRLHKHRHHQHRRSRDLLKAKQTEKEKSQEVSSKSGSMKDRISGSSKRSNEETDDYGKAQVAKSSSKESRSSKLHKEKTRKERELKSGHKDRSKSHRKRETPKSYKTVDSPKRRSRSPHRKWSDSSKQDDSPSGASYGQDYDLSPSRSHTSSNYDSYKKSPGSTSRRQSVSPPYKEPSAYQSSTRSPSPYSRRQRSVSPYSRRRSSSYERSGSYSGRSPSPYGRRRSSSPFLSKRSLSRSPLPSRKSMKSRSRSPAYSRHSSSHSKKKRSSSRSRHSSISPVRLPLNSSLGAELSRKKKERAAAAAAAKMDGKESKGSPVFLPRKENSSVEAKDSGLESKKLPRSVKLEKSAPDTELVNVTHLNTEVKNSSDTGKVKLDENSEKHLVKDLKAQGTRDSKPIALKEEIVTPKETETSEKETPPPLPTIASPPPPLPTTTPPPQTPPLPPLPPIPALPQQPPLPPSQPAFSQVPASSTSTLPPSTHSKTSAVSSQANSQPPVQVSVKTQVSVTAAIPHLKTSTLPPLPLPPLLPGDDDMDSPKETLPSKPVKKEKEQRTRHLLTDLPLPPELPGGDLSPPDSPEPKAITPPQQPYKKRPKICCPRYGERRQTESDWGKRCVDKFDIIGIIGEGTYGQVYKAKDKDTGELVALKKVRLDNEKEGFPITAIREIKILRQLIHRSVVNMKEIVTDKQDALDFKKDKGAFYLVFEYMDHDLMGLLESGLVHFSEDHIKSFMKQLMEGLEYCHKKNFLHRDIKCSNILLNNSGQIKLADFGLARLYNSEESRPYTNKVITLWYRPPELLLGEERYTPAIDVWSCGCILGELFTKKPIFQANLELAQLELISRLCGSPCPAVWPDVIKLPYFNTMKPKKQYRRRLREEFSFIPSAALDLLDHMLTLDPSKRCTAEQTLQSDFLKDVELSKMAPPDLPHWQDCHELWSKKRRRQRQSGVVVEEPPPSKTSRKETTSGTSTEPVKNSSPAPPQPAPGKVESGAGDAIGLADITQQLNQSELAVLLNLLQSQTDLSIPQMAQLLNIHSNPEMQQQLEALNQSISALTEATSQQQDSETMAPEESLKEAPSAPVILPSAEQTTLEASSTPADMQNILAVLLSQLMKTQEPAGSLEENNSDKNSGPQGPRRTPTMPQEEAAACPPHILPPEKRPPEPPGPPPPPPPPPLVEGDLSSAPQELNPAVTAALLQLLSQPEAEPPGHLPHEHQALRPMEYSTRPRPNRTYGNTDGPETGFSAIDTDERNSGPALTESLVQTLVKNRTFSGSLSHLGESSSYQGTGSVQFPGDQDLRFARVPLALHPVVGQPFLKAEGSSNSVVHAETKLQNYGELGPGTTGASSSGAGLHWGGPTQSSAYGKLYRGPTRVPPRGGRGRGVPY
T1 sequence (O75909 whole entry partner): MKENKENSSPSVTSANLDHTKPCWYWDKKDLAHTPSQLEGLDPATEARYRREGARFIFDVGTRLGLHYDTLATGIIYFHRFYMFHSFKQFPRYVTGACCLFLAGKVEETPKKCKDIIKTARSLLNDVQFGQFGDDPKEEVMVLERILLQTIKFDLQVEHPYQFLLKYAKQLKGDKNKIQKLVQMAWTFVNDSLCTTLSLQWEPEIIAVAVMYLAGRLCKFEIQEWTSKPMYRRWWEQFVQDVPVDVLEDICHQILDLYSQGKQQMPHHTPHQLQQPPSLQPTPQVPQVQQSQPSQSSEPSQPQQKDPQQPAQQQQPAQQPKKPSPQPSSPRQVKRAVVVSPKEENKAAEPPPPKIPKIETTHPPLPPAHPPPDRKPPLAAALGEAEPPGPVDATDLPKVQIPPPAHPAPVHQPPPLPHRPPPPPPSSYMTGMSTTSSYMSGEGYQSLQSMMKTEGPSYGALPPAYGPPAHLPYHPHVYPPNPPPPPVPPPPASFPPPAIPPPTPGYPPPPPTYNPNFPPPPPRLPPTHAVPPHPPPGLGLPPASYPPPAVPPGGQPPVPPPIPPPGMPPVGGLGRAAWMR

The experiment has as its target T1, CDK12 complexed with Cyclin K (Homo sapiens, UniProt Q9NYV4).
T1 construct: GST (N)
The experiment in a line: Alternative CDK Enzymatic Assays (HTRF, pre-incubation with compounds and 1 mM ATP), Example A2. The note with it: enzyme pre-incubated with compounds and 1 mM ATP for 60 minutes; reaction 120 minutes at 25° C. It counts as biochemical. In outline:
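GST-tagged human CDK12 co-expressed with full-length Cyclin K (baculovirus), pre-incubated 60 min with compounds and 1 mM ATP; reaction started with 1 mM ATP and 50 nM ULight-4E-BP1 peptide, 120 min at 25 °C, pH 7.5 HEPES. EDTA-stopped, Eu-anti-phospho-4E-BP1 HTRF (665/620 nm); IC50 from 3- or 4-parameter fit vs DMSO/no-enzyme controls.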
Background: In TR-FRET formats the signal depends on donor and acceptor labels being close together.
Regarding `C=CC(=O)Nc1cc2nc(N3C[C@H](F)C[C@@H](Nc4ncc(C#N)s4)C3)n(C)c2cc1C` [Example 162, N-(2-((3R,5R)-3-((5-Cyanothiazol-2-yl)amino)-5-fluoropiperidin-1-yl)-1,6-dimethyl-1H-benzo[d]imidazol-5-yl)acrylamide], the IC50 lay in the range of 0.05 to 0.5 µM. As for `C=CC(=O)Nc1cc2nc(N3C[C@H](F)C[C@@H](Nc4ccc(C#N)cn4)C3)n(C)c2cc1C` [Example 163, N-(2-((3R,5R)-3-((5-Cyanopyridin-2-yl)amino)-5-fluoropiperidin-1-yl)-1,6-dimethyl-1H-benzo[d]imidazol-5-yl)acrylamide], the figure is 0.05 to 0.5 µM.

`C=CC(=O)Nc1cc2nc(N3C[C@H](F)C[C@@H](Nc4ncc(C#N)c(C)n4)C3)n(C)c2cc1C` [Example 164, N-(2-((3R,5R)-3-((5-Cyano-4-methylpyrimidin-2-yl)amino)-5-fluoropiperidin-1-yl)-1,6-dimethyl-1H-benzo[d]imidazol-5-yl)acrylamide]: the IC50 was 0.05 to 0.5 µM. Regarding `C=CC(=O)N(c1ccc2c(c1)nc(N1CCC[C@@H](Nc3ncc(C(F)(F)F)cn3)C1)n2C)C1CCOC1` (stereo partly drawn) [Example 165, N-(1-Methyl-2-((R)-3-((5-(trifluoromethyl)pyrimidin-2-yl)amino)piperidin-1-yl)-1H-benzo[d]imidazol-5-yl)-N-(tetrahydrofuran-3-yl)acrylamide], the IC50 was less than 0.05 µM. As for `C=CC(=O)Nc1cc2nc(N3CCC[C@@H](Nc4ncc(C(F)(F)F)cn4)C3)n(C)c2cc1OC` [Example 166, (R)—N-(6-Methoxy-1-methyl-2-(3-((5-(trifluoromethyl)pyrimidin-2-yl)amino)piperidin-1-yl)-1H-benzo[d]imidazol-5-yl)acrylamide], the half-inhibitory concentration (IC50) is less than 0.05 µM.

In the case of “N-(2-((3R,5R)-3-Hydroxy-5-((5-(trifluoromethyl)pyrimidin-2-yl)amino)piperi-dine-1-yl)-1,6-dimethyl-1H-benzo[d]imidazol-5-yl)acrylamide [Example 94]”, the half-inhibitory concentration (IC50) was 0.05 to 0.5 µM.
